# Patent US6750244B2, “Compounds active at a novel site on receptor-operated calcium channels useful for treatment of neurological disorders and diseases” (NPS Pharmaceuticals, Inc., priority 1993, dated 2004)
# Read-outs that look alike come from different tables or passages of the source.
# Assays:
# NMDA receptor = test: Inhibition of NMDA/glycine-induced increases in intracellular calcium in cultured rat cerebellar granule cells (RCGC); type: cell-based; details: NMDA/glycine-induced increases in intracellular calcium, cultured rat cerebellar granule cells; read-out: IC50 (μM) vs. NMDA
# [1] = biological target: NMDA receptor-ionophore complex (site labeled by [3H]MK-801); test: Inhibition of [3H]MK-801 binding in rat cortical/hippocampal washed membrane preparations; details: read-out: IC50 (μM) vs. [3H]MK-801; rat cortical/hippocampal washed membranes
# L-type calcium channel = test system: T1, L-type calcium channel; test: Inhibition of KCl depolarization-induced increases in intracellular calcium in cultured rat cerebellar granule cells; type: cell-based; details: cultured rat cerebellar granule cells; read-out: L-type calcium channel: estimated IC50, KCl depolarization-induced increases in intracellular calcium
# T1 construct: L-type calcium channel: estimated IC50, KCl depolarization-induced increases in intracellular calcium; other: cultured
# Description: The ability of arylalkylamines to inhibit dihydropyridine-sensitive Ca^2+ channels was examined in cerebellar granule cells and a rat aortic smooth muscle cell line, A7r5 cells.
# [2] = test system: central muscarinic cholinergic receptor; type: binding, rat
# [3] = biological target: T2, norepinephrine uptake site (Rattus norvegicus, UniProt Q63380); test: Norepinephrine uptake binding assay: [3H]desipramine binding to rat cortical membranes
# T2 construct: from tissue; host or cells: rat cortical membranes (per the assay title)
# T2 sequence (Q63380 1-617): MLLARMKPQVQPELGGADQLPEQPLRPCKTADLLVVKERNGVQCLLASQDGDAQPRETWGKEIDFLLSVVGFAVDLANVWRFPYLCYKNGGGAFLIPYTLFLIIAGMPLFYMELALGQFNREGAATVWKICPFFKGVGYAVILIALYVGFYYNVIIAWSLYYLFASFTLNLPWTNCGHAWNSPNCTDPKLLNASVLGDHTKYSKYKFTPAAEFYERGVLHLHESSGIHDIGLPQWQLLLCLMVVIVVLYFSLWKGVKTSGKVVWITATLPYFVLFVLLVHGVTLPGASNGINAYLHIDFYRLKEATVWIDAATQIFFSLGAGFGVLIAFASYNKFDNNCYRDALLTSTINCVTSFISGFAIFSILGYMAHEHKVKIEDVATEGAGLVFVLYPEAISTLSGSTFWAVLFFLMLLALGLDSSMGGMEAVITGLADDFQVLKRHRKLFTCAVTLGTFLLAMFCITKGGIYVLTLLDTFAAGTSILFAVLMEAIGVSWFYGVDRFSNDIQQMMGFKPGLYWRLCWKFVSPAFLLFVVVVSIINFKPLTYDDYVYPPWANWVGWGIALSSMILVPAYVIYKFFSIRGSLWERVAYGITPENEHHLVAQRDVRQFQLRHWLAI
# serotonin uptake site = biological target: T3, serotonin uptake site (Rattus norvegicus, UniProt P31652); test: Serotonin uptake binding assay: [3H]citalopram binding to rat forebrain membranes
# T3 construct: from tissue; host or cells: rat forebrain membranes (per the assay title)
# T3 sequence (P31652 whole entry): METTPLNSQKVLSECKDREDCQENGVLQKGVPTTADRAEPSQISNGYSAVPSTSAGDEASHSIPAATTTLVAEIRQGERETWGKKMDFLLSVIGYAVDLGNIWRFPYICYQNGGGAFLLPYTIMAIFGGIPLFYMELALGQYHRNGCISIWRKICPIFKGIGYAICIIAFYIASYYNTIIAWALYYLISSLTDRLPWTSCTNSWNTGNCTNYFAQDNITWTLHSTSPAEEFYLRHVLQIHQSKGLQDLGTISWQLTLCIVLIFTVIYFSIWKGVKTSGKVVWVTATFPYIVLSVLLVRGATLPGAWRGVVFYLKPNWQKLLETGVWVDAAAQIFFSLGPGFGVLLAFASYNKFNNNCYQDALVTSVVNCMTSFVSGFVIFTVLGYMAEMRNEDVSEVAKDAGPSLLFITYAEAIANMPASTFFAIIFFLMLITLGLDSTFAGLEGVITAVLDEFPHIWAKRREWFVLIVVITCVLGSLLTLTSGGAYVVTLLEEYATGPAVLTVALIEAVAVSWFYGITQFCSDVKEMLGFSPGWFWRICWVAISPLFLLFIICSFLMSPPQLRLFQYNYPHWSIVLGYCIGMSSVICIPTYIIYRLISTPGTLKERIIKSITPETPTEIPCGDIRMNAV
# focal ischemia = test: Photothrombotic (Rose Bengal) model of focal cerebral ischemia; type: in vivo, rat; details: 10 mg/kg i.p. at 15 min, 3 hr, and again 6 hr post-occlusion
# Description: In a third model of focal cerebral ischemia in the rat, an ischemic infarct was produced by a photothrombotic method using the dye Rose Bengal.
# temporary focal ischemia = test: Temporary focal cerebral ischemia (middle cerebral artery occlusion, suture withdrawn after 2 hr); type: in vivo, rat
# Method: In a fourth model of focal cerebral ischemia in the rat, the middle cerebral artery was temporarily occluded by passing a small piece of suture thread through the carotid artery to the region of the middle cerebral artery. The suture thread was withdrawn after an ischemic period of 2 hr. Core body temperature was maintained at 37° C. […]
# sound-induced seizures = test: Sound-induced seizures in Frings mice (reflex epilepsy); type: in vivo; details: Mus musculus, Frings mice
# [4] = test system: maximal electroshock-induced seizures; test: Maximal electroshock-induced seizures in mice; type: in vivo; details: Mus musculus, ip; mice
# seizure threshold = test: i.v. Metrazol test (seizure threshold) in mice; type: in vivo
# in vivo = details: mouse, in vivo
# Method: (§1) In this assay, Frings and CF1 mice were injected with test compound and placed on a knurled rod which rotated at a speed of 6 rpm. The ability of the mice to maintain equilibrium for long periods of time was determined; those mice that were unable to maintain equilibrium on the rotorod for 1 min in each of 3 trials were considered impaired.
# focal ischemic stroke = test: Rat model of focal ischemic stroke (vessel occlusion); type: in vivo, rats; details: i.p. 2 mg/kg 30 min prior to vessel occlusion and 2 mg/kg 3 hr post-occlusion
# behavior [5] = test: Behavioral effects in conscious beagle dogs
# [6] = test system: mean arterial pressure, heart rate, ECG; test: Cardiovascular activity in conscious beagle dogs
# behavior [7] = test: Behavioral effects in conscious male Wistar rats
# dopamine uptake site = biological target: T4, dopamine uptake site (Cavia porcellus, UniProt H0WCX4); test: Dopamine uptake binding assay: [3H]WIN-35,428 binding to guinea pig striatal membranes
# T4 construct: from tissue; host or cells: guinea pig striatal membranes (per the assay title)
# T4 sequence (H0WCX4 1-619): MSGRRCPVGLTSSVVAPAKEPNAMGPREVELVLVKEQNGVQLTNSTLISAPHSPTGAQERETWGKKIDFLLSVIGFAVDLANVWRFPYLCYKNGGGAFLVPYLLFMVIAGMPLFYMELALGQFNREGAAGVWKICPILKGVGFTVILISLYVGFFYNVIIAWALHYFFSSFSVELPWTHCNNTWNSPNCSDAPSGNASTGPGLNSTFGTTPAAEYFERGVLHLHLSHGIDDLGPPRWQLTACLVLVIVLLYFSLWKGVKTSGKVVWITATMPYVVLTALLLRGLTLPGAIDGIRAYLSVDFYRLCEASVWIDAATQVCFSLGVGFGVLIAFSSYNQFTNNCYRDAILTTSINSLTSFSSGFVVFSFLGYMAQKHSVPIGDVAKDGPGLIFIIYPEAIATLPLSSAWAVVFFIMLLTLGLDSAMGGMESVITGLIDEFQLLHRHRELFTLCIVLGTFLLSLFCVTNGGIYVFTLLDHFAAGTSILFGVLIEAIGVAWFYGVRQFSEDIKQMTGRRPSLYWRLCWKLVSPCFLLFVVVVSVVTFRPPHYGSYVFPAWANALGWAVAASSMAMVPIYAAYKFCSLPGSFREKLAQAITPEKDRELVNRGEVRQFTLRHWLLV
# [8] = test system: maximal electroshock-induced seizures; test: Maximal electroshock-induced seizures in rats; type: in vivo; details: Rattus norvegicus, po, read-out: ED50, maximal electroshock-induced seizures
# thermal nociception [9] = type: in vivo, rats; details: 25 mg/kg i.p.
# Method: In these experiments, a 52° C. hot plate was used as the nociceptive stimulus.
# thermal nociception [10] = type: in vivo, rats; details: 25 mg/kg i.p.; remark: listed apart in the source
# Method: In this standard assay, the thermal nociceptive stimulus was 52° C. warm water with the latency to tail flick or withdrawal taken as the endpoint.
# motor performance = test: Acute motor impairment (rotorod) in mice; details: Frings mice, i.p.
# Method: as §1
# [11] = test system: mean arterial blood pressure; details: i.v.
# [12] = Motor toxicity (TD50) in rats; details: rat, in vivo, po
# PBQ-elicited writhing = type: in vivo; details: 4 mg/kg i.p.
# Method: In the first series of experiments, the animals were administered an unpleasant stimulus (2-phenyl-1,4-benzoquinone, PBQ) which elicits a writhing response (abdominal stretching). Typically, the number of writhes occurring in a 5 min observation period is recorded. […] Nonsteroidal antiinflammatory agents are likewise effective in this model.
# [13] = 3 mg/kg i.v. (60 sec bolus injection)
# [14] = 10 mg/kg i.v. (60 sec bolus injection)
smiles,measurement,setting,value
"CNCCC(c1cccc(F)c1)c1cccc(F)c1 [Compound 60, N-methyl-3,3-bis(3-fluorophenyl)-1-propylamine]",IC50,NMDA receptor,0.416 µM
same,IC50,[1],0.641 µM
same,IC50,L-type calcium channel,2300 nM
same,Central muscarinic cholinergic receptor: percent block of [3H]QNB binding,[2]; at 0.1 μM,13% at
same,Central muscarinic cholinergic receptor: percent block of [3H]QNB binding,[2]; at 10 μM,0.193% at
same,"Monoamine uptake binding assays: norepinephrine uptake binding assay, percent block",[3]; at 0.1 μM,16%
same,"Monoamine uptake binding assays: norepinephrine uptake binding assay, percent block",[3]; at 10 μM,at 0.1^g64%
same,IC50,"[3]; read-out: Monoamine uptake binding assays: norepinephrine uptake binding assay, IC50",914 nM
same,IC50,"serotonin uptake site; read-out: Monoamine uptake binding assays: serotonin uptake binding assay, IC50",68 nM
same,"neuroprotectant activity, photothrombotic model",focal ischemia,no significant neuroprotectant activity
same,neuroprotectant activity in a rat model of temporary focal ischemic stroke,temporary focal ischemia; i.p. or i.v. 1 mg/kg 2 hr and again 8 hr post-occlusion,significant neuroprotectant activity
same,neuroprotectant activity in a rat model of temporary focal ischemic stroke,temporary focal ischemia; i.v. 1 mg/kg 2 hr post-occlusion,significant neuroprotectant activity
same,ED50,sound-induced seizures; ip,4.4 mg/kg
same,ED50,sound-induced seizures; oral,10 mg/kg
same,ED50,[4],8.17 mg/kg
same,"seizure threshold, i.v. Metrazol test",seizure threshold; 1 and 4 mg/kg i.p.,no effect on seizure threshold
same,"seizure threshold, i.v. Metrazol test",seizure threshold; 8 and 17 mg/kg i.p.,a reduction in seizure threshold
same,TD50,"in vivo; Frings, ip",9.2 mg/kg
same,TD50,"in vivo; Frings, po",25.6 mg/kg
same,TD50,in vivo; ip,17.3 mg/kg
same,neuroprotectant activity in a rat model of focal ischemic stroke,focal ischemic stroke,significant neuroprotectant activity
same,dose without neuronal vacuolization,neuronal vacuolization; i.p.,20 mg/kg
same,dose without neuronal vacuolization,neuronal vacuolization; i.v.,10 mg/kg
same,behavioral effects,behavior [5]; [13],a slight increase in respiratory rate
same,behavioral effects,behavior [5]; [14],"dilated pupils, whole body tremors, salivation, and urination"
same,behavioral effects,behavior [5]; 0.3 and 1 mg/kg i.v. (60 sec bolus injection),no significant behavioral effects
same,cardiovascular activity,[6]; 0.3 mg/kg i.v. (60 sec bolus injection),no significant cardiovascular activity
same,mean arterial pressure,[6]; 1 mg/kg i.v. (60 sec bolus injection),transient increases in mean arterial pressure
same,heart rate,[6]; [13],transient increases in heart rate
same,mean arterial pressure,[6]; [13],transient increases in mean arterial pressure
same,heart rate,[6]; [14],transient increases in heart rate
same,mean arterial pressure,[6]; [14],larger magnitude and longer duration effects
same,changes in the ECG,[6]; doses up to 10 mg/kg i.v. (60 sec bolus injection),no significant changes in the ECG
same,behavioral effects,behavior [7]; 16 mg/kg i.v.,"Straub tail, convulsions, and death"
same,behavioral effects,behavior [7]; dose of a mg/kg i.v.,"excitation, stereotypies, increased reactivity to touch, increased muscle tone, and tremor"
same,behavioral effects,behavior [7]; doses up to 4 mg/kg i.v.,no significant behavioral effects
"C[C@H](N)CC(c1cccc(F)c1)c1cccc(F)c1 [Compound 50, 3,3-bis(3-fluorophenyl)-1-methyl-1-propylamine]",IC50,NMDA receptor,0.089 µM
same,IC50,[1],0.762 µM
same,Central muscarinic cholinergic receptor: percent block of [3H]QNB binding,[2]; at 0.1 μM,11% at
same,Central muscarinic cholinergic receptor: percent block of [3H]QNB binding,[2]; at 10 μM,0.184% at
same,"Monoamine uptake binding assays: dopamine uptake binding assay, percent block",dopamine uptake site; at 0.1 μM,17% at
same,"Monoamine uptake binding assays: dopamine uptake binding assay, percent block",dopamine uptake site; at 10 μM,0.1^f93% at
same,"Monoamine uptake binding assays: norepinephrine uptake binding assay, percent block",[3]; at 0.1 μM,10% at
same,"Monoamine uptake binding assays: norepinephrine uptake binding assay, percent block",[3]; at 10 μM,0.1^g78% at
same,"Monoamine uptake binding assays: serotonin uptake binding assay, percent block",serotonin uptake site; at 0.1 μM,10^g75% at
same,"Monoamine uptake binding assays: serotonin uptake binding assay, percent block",serotonin uptake site; at 10 μM,0.1^h97% at
same,ED50,sound-induced seizures; ip,2.7 mg/kg
same,ED50,sound-induced seizures; oral,9 mg/kg
same,ED50,[8],28 mg/kg
same,"analgesic activity, rat 52° C. hot plate test",thermal nociception [9],no significant analgesic activity
same,"analgesic activity, rat 48° C. tail flick test",thermal nociception [10],no significant analgesic activity
same,TD50,"in vivo; Frings, po",18.9 mg/kg
same,TD50 (motor impairment),motor performance,17.4 mg/kg
same,neuroprotectant activity in a rat model of focal ischemic stroke,focal ischemic stroke,significant neuroprotectant activity
same,no significant cardiovascular activity in anesthetized rats at doses up to,[11],up to 5 mg/kg
same,TD50,[12],20 mg/kg
"CCNCCC(c1cccc(F)c1)c1cccc(F)c1 [Compound 59, N-ethyl-3,3-bis(3-fluorophenyl)-1-propylamine]",IC50,NMDA receptor,0.272 µM
same,IC50,[1],0.453 µM
same,Central muscarinic cholinergic receptor: percent block of [3H]QNB binding,[2]; at 0.1 μM,9% at
same,Central muscarinic cholinergic receptor: percent block of [3H]QNB binding,[2]; at 10 μM,0.187% at
same,"Monoamine uptake binding assays: dopamine uptake binding assay, percent block",dopamine uptake site; at 0.1 μM,2% at
same,"Monoamine uptake binding assays: dopamine uptake binding assay, percent block",dopamine uptake site; at 10 μM,0.1^f78% at
same,"Monoamine uptake binding assays: norepinephrine uptake binding assay, percent block",[3]; at 0.1 μM,10^f7% at
same,"Monoamine uptake binding assays: norepinephrine uptake binding assay, percent block",[3]; at 10 μM,0.1^g51% at
same,"Monoamine uptake binding assays: serotonin uptake binding assay, percent block",serotonin uptake site; at 0.1 μM,10^g14% at
same,"Monoamine uptake binding assays: serotonin uptake binding assay, percent block",serotonin uptake site; at 10 μM,0.1^h86% at
same,ED50,sound-induced seizures; ip,2.7 mg/kg
same,"seizure threshold, i.v. Metrazol test",seizure threshold; 11.7 mg/kg i.p.,a reduction in seizure threshold
same,TD50,"in vivo; Frings, ip",7.8 mg/kg
same,neuroprotectant activity in a rat model of focal ischemic stroke,focal ischemic stroke,no significant neuroprotectant activity
same,no significant cardiovascular activity in anesthetized rats at doses up to,[11],up to 10 mg/kg
"CN1CC[C@]23c4c5ccc(O)c4O[C@H]2[C@@H](O)C=C[C@H]3[C@H]1C5 [morphine, reference compound]",block of the writhing response,PBQ-elicited writhing,100%
